20 molecules from PubChem BioAssay AID330 (DTP/NCI, 2004) can be followed below.

The test system of this assay is P388 leukemia ip, CD2F1 mice, survival T/C. As to the kind of experiment: NCI In Vivo Anticancer Drug Screen. Data for tumor model P388 Leukemia (intraperitoneal) in CD2F1 (CDF1) mice. The note with it: endpoint: median survival time, higher = longer survival. Summed up: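 Mice carrying the transplanted tumor received test compound or vehicle. Survival was recorded in each group, and the value is the treated-group measurement divided by that of the vehicle-treated control group.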

[1] abbreviates: dose: 50.0 mg/kg/injection, schedule: Q01DX005 (ip), vehicle: saline with Tween-80.
The mark [2] stands for this setting: dose: 100.0 mg/kg/injection, schedule: Q01DX005 (ip), vehicle: saline with Tween-80.
Where [3] appears, read: dose: 200.0 mg/kg/injection, schedule: Q01DX005 (ip), vehicle: saline with Tween-80.
Where [4] appears, read: dose: 50.0 mg/kg/injection, schedule: Q01DX009 (ip), vehicle: saline.
The mark [5] stands for this setting: dose: 100.0 mg/kg/injection, schedule: Q01DX009 (ip), vehicle: saline.
[6] abbreviates: dose: 200.0 mg/kg/injection, schedule: Q01DX009 (ip), vehicle: saline.
[7] abbreviates: dose: 50.0 mg/kg/injection, schedule: Q01DX009 (ip), vehicle: saline with Tween-80.
The mark [8] stands for this setting: dose: 100.0 mg/kg/injection, schedule: Q01DX009 (ip), vehicle: saline with Tween-80.
Where [9] appears, read: dose: 200.0 mg/kg/injection, schedule: Q01DX009 (ip), vehicle: saline with Tween-80.
Setting [10] is: dose: 60.0 mg/kg/injection, schedule: Q01DX005 (ip), vehicle: saline with Tween-80.
Setting [11] is: dose: 120.0 mg/kg/injection, schedule: Q01DX005 (ip), vehicle: saline with Tween-80.
Where [12] appears, read: dose: 240.0 mg/kg/injection, schedule: Q01DX005 (ip), vehicle: saline with Tween-80.
Where [13] appears, read: dose: 100.0 mg/kg/injection, schedule: Q01DX009 (ip), vehicle: Klucel (hydroxypropylcellulose) (HPC).
Setting [14] is: dose: 6.25 mg/kg/injection, schedule: Q01DX005 (ip), vehicle: Klucel (hydroxypropylcellulose) (HPC).
The mark [15] stands for this setting: dose: 12.5 mg/kg/injection, schedule: Q01DX005 (ip), vehicle: Klucel (hydroxypropylcellulose) (HPC).

Values joined by “and” are separate entries in the source; they are usually repeats but may differ in a detail not shown here. Equal entries are not always repeated. Inconclusive results and toxic doses are left out.

Turning to `Cc1cc2oc3c(ccc(=O)n3C)c(=O)c2c(C)c1Cl`, the T/C runs as follows: under setting [1], 104 % of control; under setting [2], 113 % of control; under setting [3], 88 % of control.
For `CCOC(=O)Cc1cc2cc(=O)[nH]cc2cc1C`, the T/C by setting is: (dose: 12.5 mg/kg/injection, schedule: Q01DX009 (ip), vehicle: distilled water + Tween-80) 94 % of control; (dose: 25.0 mg/kg/injection, schedule: Q01DX009 (ip), vehicle: distilled water + Tween-80) 93 % of control; (dose: 50.0 mg/kg/injection, schedule: Q01DX009 (ip), vehicle: distilled water + Tween-80) 90 % of control; (dose: 200.0 mg/kg/injection, schedule: Q01DX009 (ip), vehicle: distilled water + Tween-80) 87 % of control.
For `N#Cc1cnc2n(c1=N)CCCCC2`, the T/C is 102 % of control (dose: 25.0 mg/kg/injection, schedule: Q04DX003 (ip), vehicle: Klucel (hydroxypropylcellulose) (HPC)); 94 % of control (dose: 50.0 mg/kg/injection, schedule: Q04DX003 (ip), vehicle: Klucel (hydroxypropylcellulose) (HPC)); 102 % of control (dose: 100.0 mg/kg/injection, schedule: Q04DX003 (ip), vehicle: Klucel (hydroxypropylcellulose) (HPC)).
In the case of `C1=CCN(c2nc(N3CCOCC3)nc(N3CCCc4ccccc43)n2)CC1`, the T/C under setting [4] was 99 % of control, the T/C under setting [5] is 97 % of control and the T/C under setting [6] was 99 % of control.
Consider `O=C1OC(c2ccc(Cl)cc2)=N/C1=C\c1ccccc1`, for which the T/C runs as follows: under setting [7], 120 % of control; under setting [8], 90 % of control; under setting [9], 100 % of control.
Regarding `O=C(CNC(=O)c1ccccc1)Nc1ccccc1`, the T/C runs as follows: (dose: 25.0 mg/kg/injection, schedule: Q01DX009 (ip), vehicle: saline) 115 % of control; under setting [4], 103 % of control; under setting [5], 94 % of control; under setting [6], 104 % of control.
Take `NC1=C(O)C(=O)C(c2c[nH]c3ccc(OCc4ccccc4)cc23)O1` (stereo unspecified): the T/C by setting is: (dose: 7.5 mg/kg/injection, schedule: Q01DX005 (ip), vehicle: Klucel (hydroxypropylcellulose) (HPC)) 93 % of control; (dose: 15.0 mg/kg/injection, schedule: Q01DX005 (ip), vehicle: Klucel (hydroxypropylcellulose) (HPC)) 101 % of control; (dose: 30.0 mg/kg/injection, schedule: Q01DX005 (ip), vehicle: Klucel (hydroxypropylcellulose) (HPC)) 102 % of control and 96 % of control.
On to `COc1c(C=O)c2c(c(C=O)c1OC)OCO2`, for which the T/C was 100 % of control under setting [1], 104 % of control under setting [2] and 99 % of control under setting [3].
`NC(=O)c1ccc(N)nc1`: the T/C (dose: 0.63 mg/kg/injection, schedule: Q01DX009 (ip), vehicle: saline) was 104 % of control; the T/C (dose: 1.25 mg/kg/injection, schedule: Q01DX009 (ip), vehicle: saline) was 100 % of control; the T/C (dose: 1.56 mg/kg/injection, schedule: Q01DX009 (ip), vehicle: saline with Tween-80) is 110 % of control; the T/C (dose: 2.5 mg/kg/injection, schedule: Q01DX009 (ip), vehicle: saline) is 121 % of control; the T/C (dose: 3.12 mg/kg/injection, schedule: Q01DX009 (ip), vehicle: saline with Tween-80) is 122 % of control; the T/C (dose: 6.25 mg/kg/injection, schedule: Q01DX009 (ip), vehicle: saline with Tween-80) was 117 % of control and 95 % of control. In addition, the T/C (dose: 6.25 mg/kg/injection, schedule: Q04DX003 (ip), vehicle: saline with Tween-80) was 109 % of control.
Regarding `CCOc1ccccc1N=Nc1c(-c2ccccc2)nn(C(=S)S)c1-c1ccccc1`, the T/C reads like this: under setting [1], 107 % of control; under setting [2], 109 % of control; under setting [3], 110 % of control.
With `O=C(O)C1SCCCS1`, the T/C is, setting by setting: under setting [10], 100 % of control; under setting [11], 98 % of control; under setting [12], 100 % of control.
Consider `O=C(NCCN1CCOCC1)Nc1ccc2c(c1)OCCOCCOCCOCCO2`, for which the T/C by setting is: (dose: 60.0 mg/kg/injection, schedule: Q01DX005 (ip), vehicle: saline) 105 % of control; (dose: 120.0 mg/kg/injection, schedule: Q01DX005 (ip), vehicle: saline) 102 % of control; (dose: 240.0 mg/kg/injection, schedule: Q01DX005 (ip), vehicle: saline) 99 % of control.
With `O=C1OCC2C1Cc1cc(O)c(O)cc1C2c1ccc(O)c(O)c1` (stereo unspecified), the T/C by setting is: under setting [13], 94 % of control; (dose: 200.0 mg/kg/injection, schedule: Q01DX009 (ip), vehicle: Klucel (hydroxypropylcellulose) (HPC)) 92 % of control; (dose: 400.0 mg/kg/injection, schedule: Q01DX009 (ip), vehicle: Klucel (hydroxypropylcellulose) (HPC)) 111 % of control.
Regarding `CC(=O)[O][Pb]([O]C(C)=O)([c]1ccccc1)[c]1ccccc1`, the T/C runs as follows: (dose: 6.25 mg/kg/injection, schedule: Q01DX009 (ip), vehicle: Klucel (hydroxypropylcellulose) (HPC)) 121 % of control; (dose: 12.5 mg/kg/injection, schedule: Q01DX009 (ip), vehicle: Klucel (hydroxypropylcellulose) (HPC)) 124 % of control; (dose: 17.8 mg/kg/injection, schedule: Q01DX009 (ip), vehicle: saline with Tween-80) 114 % of control; (dose: 25.0 mg/kg/injection, schedule: Q01DX009 (ip), vehicle: Klucel (hydroxypropylcellulose) (HPC)) 119 % of control; (dose: 30.0 mg/kg/injection, schedule: Q01DX009 (ip), vehicle: Klucel (hydroxypropylcellulose) (HPC)) 104 % of control; (dose: 40.0 mg/kg/injection, schedule: Q01DX009 (ip), vehicle: saline with Tween-80) 123 % of control. The T/C (dose: 45.0 mg/kg/injection, schedule: Q01DX009 (ip), vehicle: Klucel (hydroxypropylcellulose) (HPC)) is 112 % of control; the T/C (dose: 50.0 mg/kg/injection, schedule: Q01DX009 (ip), vehicle: Klucel (hydroxypropylcellulose) (HPC)) was 120 % of control; the T/C (dose: 65.0 mg/kg/injection, schedule: Q01DX009 (ip), vehicle: Klucel (hydroxypropylcellulose) (HPC)) is 107 % of control; the T/C under setting [13] is 123 % of control; the T/C (dose: 150.0 mg/kg/injection, schedule: Q01DX009 (ip), vehicle: Klucel (hydroxypropylcellulose) (HPC)) is 150 % of control.
Take `N[C@@]1(C(F)(F)F)N[C@](N)(C(F)(F)F)C(F)(F)C(F)(F)C1(F)F`: the T/C is 102 % of control under setting [14] and 95 % of control under setting [15].
On to `O=C1C=CC(=O)C(Sc2cccc3ccccc23)=C1`, for which the T/C was 96 % of control under setting [14]; 102 % of control and 97 % of control under setting [15]; 93 % of control (dose: 25.0 mg/kg/injection, schedule: Q01DX005 (ip), vehicle: Klucel (hydroxypropylcellulose) (HPC)); 98 % of control and 107 % of control (dose: 50.0 mg/kg/injection, schedule: Q01DX005 (ip), vehicle: Klucel (hydroxypropylcellulose) (HPC)); 107 % of control (dose: 100.0 mg/kg/injection, schedule: Q01DX005 (ip), vehicle: Klucel (hydroxypropylcellulose) (HPC)); 104 % of control (dose: 200.0 mg/kg/injection, schedule: Q01DX005 (ip), vehicle: Klucel (hydroxypropylcellulose) (HPC)).
As for `COc1ccc(C2(Cc3ccccc3C#N)OCCO2)cc1OC`, the T/C is, setting by setting: (dose: 100.0 mg/kg/injection, schedule: Q04DX002 (ip), vehicle: Klucel (hydroxypropylcellulose) (HPC)) 95 % of control; (dose: 200.0 mg/kg/injection, schedule: Q04DX002 (ip), vehicle: Klucel (hydroxypropylcellulose) (HPC)) 101 % of control; (dose: 400.0 mg/kg/injection, schedule: Q04DX002 (ip), vehicle: Klucel (hydroxypropylcellulose) (HPC)) 99 % of control.
For the molecule `C=C(C)C(=O)OC1c2c(C)coc2C(=O)C2CCCC(C)C21C` (stereo unspecified), the T/C by setting is: (dose: 25.0 mg/kg/injection, schedule: Q01DX009 (ip), vehicle: saline with Tween-80) 101 % of control; under setting [7], 98 % of control; under setting [8], 102 % of control; under setting [9], 96 % of control.
Take `CCOC(=O)C1=C(C(=O)c2ccc(C)cc2)C(c2c(Cl)cccc2Cl)C(C(=O)c2ccc(C)cc2)=C(C(=O)OCC)N1`: the T/C reads like this: (dose: 30.0 mg/kg/injection, schedule: Q01DX005 (ip), vehicle: saline with Tween-80) 104 % of control; under setting [10], 102 % of control; under setting [11], 104 % of control and 90 % of control; under setting [12], 88 % of control.
`CCOC(=O)CSc1sc(C(=O)OCC)c(N)c1C#N`: the T/C under setting [7] was 87 % of control.
